Measured values from US11649241B2, “Pyrazolochlorophenyl compounds, compositions and methods of use thereof” (Genentech, Inc., priority 2017, dated 2023).

Experiments:
[1] = target: isolated recombinant JAK1 kinase domain (Homo sapiens (Human), UniProt P23458); test: JAK enzyme assay (Caliper LabChip peptide phosphorylation), JAK1; assay type: biochemical; conditions: 1.5 nM JAK1, ATP 25 μM, Morrison tight binding model
[2] = system: JAK1-dependent STAT6 phosphorylation downstream of IL-13 stimulation (TF-1 / BEAS-2B cells); test: JAK1 pathway assay in cell lines (IL-13-stimulated pSTAT6, MSD); assay type: cell-based; conditions: Homo sapiens, inhibition of STAT6 phosphorylation, cell line (TF-1 or BEAS-2B) not specified
Protocol: JAK1 Pathway Assay in Cell Lines was Carried Out as Follows:
Inhibitor potency (EC50) was determined in cell-based assays designed to measure JAK1 dependent STAT phosphorylation. As noted above, inhibition of IL-4, IL-13, and IL-9 signalling by blocking the Jak/Stat signaling pathway can alleviate asthmatic symptoms in pre-clinical lung inflammation models (Mathew et al., 2001, J Exp Med 193(9): 1087-1096; Kudlacz et. al., 2008, Eur J. Pharmacol 582(1-3): 154-161).
In one assay approach, TF-1 human erythroleukemia cells obtained from the American Type Culture Collection (ATCC; Manassas, Va.) were used to measure JAK1-dependent STAT6 phosphorylation downstream of IL-13 stimulation. Prior to use in the assays, TF-1 cells were starved of GM-CSF overnight in OptiMEM medium (Life Technologies, Grand Island, N.Y.) supplemented with 0.5% charcoal/dextran stripped fetal bovine serum (FBS), 0.1 mM non-essential amino acids (NEAA), and 1 mM sodium pyruvate. The assays were run in 384-well plates in serum-free OptiMEM medium using 300,000 cells per well. In a second assay approach, BEAS-2B human bronchial epithelial cells obtained from ATCC were plated at 100,000 cells per well of a 96-well plate one day prior to the experiment. The BEAS-2B assay was run in complete growth medium (bronchial epithelial basal medium plus bulletkit; Lonza; Basel, Switzerland).
Test compounds were serially diluted 1:2 in DMSO and then diluted 1:50 in medium just before use. Diluted compounds were added to the cells, for a final DMSO concentration of 0.2%, and incubated for 30 min (for the TF-1 assay) or 1 hr (for the BEAS-2B assay) at 37° C. Then, cells were stimulated with human recombinant cytokine at their respective EC90 concentrations, as previously determined for each individual lot. Cells were stimulated with IL-13 (R&D Systems, Minneapolis, Minn.) for 15 min at 37° C. The TF-1 cell reactions were stopped by the direct addition of 10× lysis buffer (Cell Signaling Technologies, Danvers, Mass.), whereas the BEAS-2B cell incubations were halted by the removal of medium and addition of 1× lysis buffer. The resultant samples were frozen in the plates at −80° C. Compound mediated inhibition of STAT6 phosphorylation was measured in the cell lysates using MesoScale Discovery (MSD) technology (Gaithersburg, Md.). EC50 values were determined as the concentration of compound required for 50% inhibition of STAT phosphorylation relative to that measured for the DMSO control.

[3] = target: isolated recombinant JAK2 kinase domain (Homo sapiens (Human), UniProt O60674); test: JAK enzyme assay (Caliper LabChip peptide phosphorylation), JAK2; assay type: biochemical; conditions: 0.2 nM JAK2, ATP 25 μM, Morrison tight binding model
Sequence of isolated recombinant JAK2 kinase domain (O60674 849-1124): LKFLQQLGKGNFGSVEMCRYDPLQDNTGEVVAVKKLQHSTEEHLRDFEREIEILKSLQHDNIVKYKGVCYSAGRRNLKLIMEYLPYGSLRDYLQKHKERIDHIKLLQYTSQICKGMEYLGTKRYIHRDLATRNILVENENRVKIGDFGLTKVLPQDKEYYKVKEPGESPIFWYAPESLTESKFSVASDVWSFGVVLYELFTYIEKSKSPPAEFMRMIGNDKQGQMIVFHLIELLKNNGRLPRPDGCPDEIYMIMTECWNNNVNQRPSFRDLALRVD

Sequence of isolated recombinant JAK1 kinase domain (P23458 875-1153): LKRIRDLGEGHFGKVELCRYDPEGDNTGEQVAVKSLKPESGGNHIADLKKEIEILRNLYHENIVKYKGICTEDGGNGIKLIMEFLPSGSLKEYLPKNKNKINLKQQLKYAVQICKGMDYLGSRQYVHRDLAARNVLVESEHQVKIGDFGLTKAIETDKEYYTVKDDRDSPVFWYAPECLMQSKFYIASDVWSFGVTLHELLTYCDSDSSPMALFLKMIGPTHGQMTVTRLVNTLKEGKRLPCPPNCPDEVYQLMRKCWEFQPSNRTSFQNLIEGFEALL

Structure (SMILES) | Ki [1] | IC50 [2] | Ki [3]
COc1ccc(Cl)cc1-c1nn(C)cc1NC(=O)c1cncc2cn(C)nc12 [Example 1, N-(3-(5-Chloro-2-methoxyphenyl)-1-methyl-1H-pyrazol-4-yl)-2-methyl-2H-pyrazolo[4,3-c]pyridine-7-carboxamide] | 3.63 nM | 92.8 nM | 3.66 nM
COc1ccc(Cl)cc1-c1nn(C)cc1NC(=O)c1cncc2cn[nH]c12 [Example 2, N-(3-(5-Chloro-2-methoxyphenyl)-1-methyl-1H-pyrazol-4-yl)-1H-pyrazolo[4,3-c]pyridine-7-carboxamide] | 1.35 nM | 35.9 nM | 0.35 nM
COc1ccc(Cl)cc1-c1n[nH]cc1NC(=O)c1cncc2scnc12 [Example 3, N-(3-(5-Chloro-2-methoxyphenyl)-1H-pyrazol-4-yl)thiazolo[5,4-c]pyridine-7-carboxamide] | 6.55 nM | – | 0.96 nM
O=C(Nc1c[nH]nc1-c1cc(Cl)ccc1OC(F)F)c1cncc2scnc12 [Example 4, N-(3-(5-chloro-2-(difluoromethoxy)phenyl)-1H-pyrazol-4-yl)thiazolo[5,4-c]pyridine-7-carboxamide] | 9.5 nM | – | 2.02 nM
Nc1nc2c(C(=O)Nc3c[nH]nc3-c3cc(Cl)ccc3OC(F)F)cncc2s1 [Example 5, 2-amino-N-(3-(5-chloro-2-(difluoromethoxy)phenyl)-1H-pyrazol-4-yl)thiazolo[5,4-c]pyridine-7-carboxamide] | 0.97 nM | – | 0.06 nM
O=C(Nc1c[nH]nc1-c1cc(Cl)ccc1OC(F)F)c1cncc2cn[nH]c12 [Example 6, N-(3-(5-chloro-2-(difluoromethoxy)phenyl)-1H-pyrazol-4-yl)-1H-pyrazolo[4,3-c]pyridine-7-carboxamide] | 7.35 nM | – | 0.48 nM
O=C(Nc1c[nH]nc1-c1cc(Cl)ccc1OC(F)F)c1snc2cccnc12 [Example 7, N-(3-(5-chloro-2-(difluoromethoxy)phenyl)-1H-pyrazol-4-yl)isothiazolo[4,3-b]pyridine-3-carboxamide] | 0.54 nM | 20.2 nM | 0.6 nM
O=C(Nc1c[nH]nc1-c1cc(Cl)ccc1OC(F)F)c1cnc2[nH]ccc2n1 [Example 8, N-(3-(5-chloro-2-(difluoromethoxy)phenyl)-1H-pyrazol-4-yl)-5H-pyrrolo[3,2-b]pyrazine-2-carboxamide] | 0.57 nM | – | 0.34 nM
Nc1nn2cccnc2c1C(=O)Nc1c[nH]nc1-c1cc(Cl)ccc1OC(F)F [Example 9, 2-amino-N-(3-(5-chloro-2-(difluoromethoxy)phenyl)-1H-pyrazol-4-yl)pyrazolo[1,5-a]pyrimidine-3-carboxamide] | 0.49 nM | 7.9 nM | 0.17 nM
O=C(Nc1c[nH]nc1-c1cc(Cl)ccc1OC(F)F)c1cncc2ccoc12 [Example 10, N-(3-(5-chloro-2-(difluoromethoxy)phenyl)-1H-pyrazol-4-yl)furo[3,2-c]pyridine-7-carboxamide] | 0.85 nM | 50.6 nM | 0.33 nM
O=C(Nc1c[nH]nc1-c1cc(Cl)ccc1OC(F)F)c1coc2cccnc12 [Example 11, N-(3-(5-chloro-2-(difluoromethoxy)phenyl)-1H-pyrazol-4-yl)furo[3,2-b]pyridine-3-carboxamide] | 0.56 nM | 17.5 nM | 0.49 nM
O=C(Nc1c[nH]nc1-c1cc(Cl)ccc1OC(F)F)c1cnn2cc(F)cnc12 [Example 12, N-(3-(5-chloro-2-(difluoromethoxy)phenyl)-1H-pyrazol-4-yl)-6-fluoropyrazolo[1,5-a]pyrimidine-3-carboxamide] | 0.41 nM | 16.8 nM | 0.09 nM
Cc1ccn2ncc(C(=O)Nc3c[nH]nc3-c3cc(Cl)ccc3OC(F)F)c2n1 [Example 13, N-(3-(5-chloro-2-(difluoromethoxy)phenyl)-1H-pyrazol-4-yl)-5-methylpyrazolo[1,5-a]pyrimidine-3-carboxamide] | 2.29 nM | 41.5 nM | 0.41 nM
COc1ccn2ncc(C(=O)Nc3c[nH]nc3-c3cc(Cl)ccc3OC(F)F)c2n1 [Example 14, N-(3-(5-chloro-2-(difluoromethoxy)phenyl)-1H-pyrazol-4-yl)-5-methoxypyrazolo[1,5-a]pyrimidine-3-carboxamide] | 0.18 nM | 3.8 nM | 0.04 nM
O=C(Nc1c[nH]nc1-c1cc(Cl)ccc1OC(F)F)c1cncc2[nH]cnc12 [Example 15, N-(3-(5-chloro-2-(difluoromethoxy)phenyl)-1H-pyrazol-4-yl)-3H-imidazo[4,5-c]pyridine-7-carboxamide] | 5.67 nM | – | 2.55 nM
